Molecular target: AR / CBP ternary complex (Homo sapiens, UniProt P10275+Q92793)
Assay: Ternary complex formation assay (sandwich ELISA, AR capture, CBP antibody detection) in VCaP cell lysates
Format: cell-based
Details: treated 1.5 hours, rabbit CBP or p300 antibody detection, average, read-out: Average Ternary Complex
Description: Black MaxiSorp plates: coat with 50 μL of mouse 1/50 diluted AR antibody (Monoclonal Antibody (AR 441 from Thermo Fisher); diluted in phosphate buffered saline (PBS). Spin the liquid to the bottom of the wells, if necessary. Incubate overnight at 4° C. Next day, wash 3 times with 200 μL of TBST. Block with 200 μL of blocking buffer (5% BSA in TBST) at room temperature for 2 hours (BSA: A4503 or A2153 from Sigma). Wash plates 3 times with TBST. Plates are ready for lysates Preparation of dimerizer treated lysates
Culture cells in 96 wells at 50K VCaP cells/well for at least 3 days. Plate in 5% Omega charcoal stripped FBS in total volume of 200 uL. Treat with bifunctional for 1.5 hours by adding 1 μL of 200× stock in DMSO. Aspirate media/compound. Add and pipet-to-mix 70 μL of 1× AlphaLisa Lysis Buffer to each well (Perkin Elmer, AlphaLISA SureFire Ultra, diluted in water). Pipet up and down when adding lysis buffer to disrupt cells. Let lysis proceed for 30 min at 4° C.
Incubate for 1 hour at room temperature. Flick out the lysates. Wash 3 times with TBST. Add 75 μL of rabbit CBP or p300 antibody to each well (diluted 1:5000 in blocking buffer (5% BSA in TBST). CBP antibody: (D6C5) Rabbit mAb #7389; p300 antibody: (D8Z4E) Rabbit mAb #86377. Incubate overnight at 4° C. Wash 3 times with 300 uL TBST, each time on shaker for 5-10 min. Prepare goat anti-rabbit antibody conjugated to HRP (1/100K dilution in blocking buffer) Invitrogen Catalog number: 32260. Add 75 μL of HRP-conjugated goat anti-rabbit antibody. Incubate at room temperature for 1 hour. Flick out the HRP-antibody mixture. Wash 7-8 times with TBST, each time on shaker for 10 min. Later washes try to overflow the wells so that no residual HRP remains bound to the sides of the well. Prepare and add 75 uL/well of QuantaRed Enhance Chemifluorescent HRP Substrate solution. Immediately read fluorescence on BMG ClarioStar (ex: 570/em 585), and repeat the read in 5 minutes and 15 minutes.

AR / CBP ternary complex, sequence (P10275 whole entry): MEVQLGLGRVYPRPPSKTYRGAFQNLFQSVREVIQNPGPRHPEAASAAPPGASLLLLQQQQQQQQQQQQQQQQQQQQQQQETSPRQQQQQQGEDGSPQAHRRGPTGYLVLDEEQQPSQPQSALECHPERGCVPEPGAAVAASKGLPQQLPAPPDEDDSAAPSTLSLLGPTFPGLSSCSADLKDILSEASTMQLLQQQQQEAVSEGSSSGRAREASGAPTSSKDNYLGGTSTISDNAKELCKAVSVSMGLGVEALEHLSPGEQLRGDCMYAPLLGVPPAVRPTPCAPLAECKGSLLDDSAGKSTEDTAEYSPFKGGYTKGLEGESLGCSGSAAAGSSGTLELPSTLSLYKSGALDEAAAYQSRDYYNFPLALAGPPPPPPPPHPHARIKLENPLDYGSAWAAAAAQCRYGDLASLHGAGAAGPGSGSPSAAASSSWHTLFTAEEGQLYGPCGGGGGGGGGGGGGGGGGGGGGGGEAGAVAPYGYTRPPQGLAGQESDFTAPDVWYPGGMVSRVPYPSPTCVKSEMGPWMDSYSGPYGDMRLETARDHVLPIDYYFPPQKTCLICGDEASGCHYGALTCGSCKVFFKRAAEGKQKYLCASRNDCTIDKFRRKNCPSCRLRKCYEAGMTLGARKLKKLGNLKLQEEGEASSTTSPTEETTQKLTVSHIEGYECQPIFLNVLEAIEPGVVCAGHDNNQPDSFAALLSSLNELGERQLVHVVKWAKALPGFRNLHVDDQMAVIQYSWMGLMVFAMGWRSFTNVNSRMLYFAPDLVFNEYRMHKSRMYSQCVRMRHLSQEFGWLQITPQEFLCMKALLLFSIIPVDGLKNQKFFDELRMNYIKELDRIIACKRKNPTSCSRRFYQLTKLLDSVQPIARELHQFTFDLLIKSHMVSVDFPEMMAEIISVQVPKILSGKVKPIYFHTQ
AR / CBP ternary complex, sequence (Q92793 2-2442): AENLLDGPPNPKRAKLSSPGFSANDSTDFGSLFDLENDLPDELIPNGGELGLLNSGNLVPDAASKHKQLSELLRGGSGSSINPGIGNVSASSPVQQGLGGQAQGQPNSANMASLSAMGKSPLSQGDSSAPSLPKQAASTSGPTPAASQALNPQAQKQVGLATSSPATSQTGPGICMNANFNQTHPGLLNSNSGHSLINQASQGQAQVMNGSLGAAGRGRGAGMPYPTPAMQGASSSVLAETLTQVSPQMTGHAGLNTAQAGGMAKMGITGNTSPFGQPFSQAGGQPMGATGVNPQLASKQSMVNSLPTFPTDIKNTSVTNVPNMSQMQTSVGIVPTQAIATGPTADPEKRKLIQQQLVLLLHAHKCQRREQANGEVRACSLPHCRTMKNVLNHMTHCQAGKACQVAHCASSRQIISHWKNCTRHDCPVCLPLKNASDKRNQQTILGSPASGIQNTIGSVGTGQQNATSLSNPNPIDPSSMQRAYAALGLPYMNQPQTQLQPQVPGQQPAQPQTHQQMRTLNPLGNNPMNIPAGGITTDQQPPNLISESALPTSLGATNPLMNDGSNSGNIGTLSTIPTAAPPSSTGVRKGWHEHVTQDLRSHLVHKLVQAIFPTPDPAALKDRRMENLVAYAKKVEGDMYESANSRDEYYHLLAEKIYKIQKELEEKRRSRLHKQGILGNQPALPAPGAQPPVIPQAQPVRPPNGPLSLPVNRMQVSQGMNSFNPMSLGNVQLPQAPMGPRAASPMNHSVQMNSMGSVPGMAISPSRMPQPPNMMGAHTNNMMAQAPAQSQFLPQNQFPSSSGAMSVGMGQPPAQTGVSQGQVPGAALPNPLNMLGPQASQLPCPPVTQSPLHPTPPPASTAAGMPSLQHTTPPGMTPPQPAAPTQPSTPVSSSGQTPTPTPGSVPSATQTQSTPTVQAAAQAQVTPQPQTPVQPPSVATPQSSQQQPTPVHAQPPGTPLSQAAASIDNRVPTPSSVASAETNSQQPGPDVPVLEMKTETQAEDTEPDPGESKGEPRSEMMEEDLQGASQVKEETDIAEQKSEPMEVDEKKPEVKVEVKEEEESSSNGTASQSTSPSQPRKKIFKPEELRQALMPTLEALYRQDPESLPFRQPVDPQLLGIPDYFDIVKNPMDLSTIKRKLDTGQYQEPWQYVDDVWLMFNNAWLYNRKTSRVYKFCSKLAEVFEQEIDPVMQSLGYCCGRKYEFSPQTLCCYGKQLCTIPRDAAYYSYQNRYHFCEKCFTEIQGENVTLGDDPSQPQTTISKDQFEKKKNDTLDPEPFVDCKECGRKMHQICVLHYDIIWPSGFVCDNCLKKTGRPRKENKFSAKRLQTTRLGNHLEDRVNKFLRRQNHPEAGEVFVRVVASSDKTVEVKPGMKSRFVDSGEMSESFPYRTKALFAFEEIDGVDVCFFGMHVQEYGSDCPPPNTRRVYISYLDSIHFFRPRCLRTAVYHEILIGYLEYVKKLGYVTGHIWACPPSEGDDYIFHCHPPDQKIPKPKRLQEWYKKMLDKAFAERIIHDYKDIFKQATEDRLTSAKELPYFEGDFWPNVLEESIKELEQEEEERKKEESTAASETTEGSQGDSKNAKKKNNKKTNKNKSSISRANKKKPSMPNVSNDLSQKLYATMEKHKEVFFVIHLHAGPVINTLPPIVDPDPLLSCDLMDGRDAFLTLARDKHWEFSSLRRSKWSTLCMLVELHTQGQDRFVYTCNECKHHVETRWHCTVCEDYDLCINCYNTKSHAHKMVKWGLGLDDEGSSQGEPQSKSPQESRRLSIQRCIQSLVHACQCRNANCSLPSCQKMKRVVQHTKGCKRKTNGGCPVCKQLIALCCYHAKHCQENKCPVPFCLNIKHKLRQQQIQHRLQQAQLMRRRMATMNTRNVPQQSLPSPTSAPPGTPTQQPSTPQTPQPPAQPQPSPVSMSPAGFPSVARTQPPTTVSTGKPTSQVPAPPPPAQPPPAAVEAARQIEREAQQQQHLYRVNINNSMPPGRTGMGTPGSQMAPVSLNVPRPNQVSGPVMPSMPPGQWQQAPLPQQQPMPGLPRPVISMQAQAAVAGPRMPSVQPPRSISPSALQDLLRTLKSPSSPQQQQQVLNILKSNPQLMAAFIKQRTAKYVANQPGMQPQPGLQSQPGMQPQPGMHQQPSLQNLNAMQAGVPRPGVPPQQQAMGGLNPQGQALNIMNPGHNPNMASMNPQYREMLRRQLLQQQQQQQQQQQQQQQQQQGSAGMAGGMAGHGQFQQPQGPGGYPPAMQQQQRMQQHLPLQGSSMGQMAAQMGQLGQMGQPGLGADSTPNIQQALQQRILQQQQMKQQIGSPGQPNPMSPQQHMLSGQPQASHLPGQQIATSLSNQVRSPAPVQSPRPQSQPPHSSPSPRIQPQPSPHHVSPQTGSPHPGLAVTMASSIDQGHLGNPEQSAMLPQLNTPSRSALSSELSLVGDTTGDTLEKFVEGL

`CC(=O)N1CCc2c(c(N3CCCc4cc(-c5ccn(C)n5)c(C(F)F)cc43)nn2C2CCC3(CC2)CC(Oc2ccc(C(=O)N[C@H]4CC[C@H](Oc5ccc(C#N)c(Cl)c5)CC4)nn2)C3)C1` (stereo partly drawn) [Compound 275] was tested. Which EC50 did it give?
The EC50 was less than 1 nM.

How did the EC50 turn out when `CC(=O)N1CCc2c(c(N3CCCc4cc(-c5ccc(OC6CC7(CCN(c8ccc(C(=O)N[C@H]9CC[C@H](Oc%10ccc(C#N)c(Cl)c%10)CC9)nn8)CC7)C6)cc5)c(C(F)F)cc43)nn2C2CCOCC2)C1` [Compound 203, 6-[2-[4-[1-(5-acetyl-1-tetrahydropyran-4-yl-6,7-dihydro-4H-pyrazolo[4,3-c]pyridin-3-yl)-7-(difluoromethyl)-3,4-dihydro-2H-quinolin-6-yl]phenoxy]-7-azaspiro[3.5]nonan-7-yl]-N-[4-(3-chloro-4-cyano-phenoxy)cyclohexyl]pyridazine-3-carboxamide] was run?
The EC50 was less than 1 nM.

For `CC(=O)N1CCc2c(c(N3CCCc4cc(-c5cnn(C)c5)c(C)cc43)nn2C2CCN(C3CCC4(CC3)CN(c3ccc(C(=O)N[C@H]5CC[C@H](Oc6ccc(C#N)c(Cl)c6)CC5)nn3)C4)CC2)C1` [Compound 295], which EC50 is on record?
The EC50 was less than 1 nM.

`COc1cc(O[C@H]2CC[C@H](NC(=O)c3ccc(N4CC5(CCC(N6CCC(n7nc(N8CCCc9cc(-c%10cnn(C)c%10)c(C)cc98)c8c7CCN(C(C)=O)C8)CC6)CC5)C4)nn3)CC2)ccc1C#N` [Compound 296, 6-[7-[4-[5-acetyl-3-[7-methyl-6-(1-methylpyrazol-4-yl)-3,4-dihydro-2H-quinolin-1-yl]-6,7-dihydro-4H-pyrazolo[4,3-c]pyridin-1-yl]-1-piperidyl]-2-azaspiro [3.5]nonan-2-yl]-N-[4-(4-cyano-3-methoxy-phenoxy)cyclohexyl] pyridazine-3-carboxamide] was tested. Which EC50 did it give?
Its EC50 is less than 1 nM.

How did the EC50 turn out when `CC(=O)N1CCc2c(c(N3CCCc4cc(-c5cnn(C)c5)c(C(F)F)cc43)nn2C2CCN(CC3CCN(c4nnc(C(=O)N[C@H]5CC[C@H](Oc6ccc(C#N)c(Cl)c6)CC5)s4)CC3)CC2)C1` [Compound 225] was run?
The EC50 was less than 1 nM.

Which EC50 does the source give for `CC(=O)N1CCc2c(c(N3CCCc4cc(-c5cnn(C)c5)c(C(F)F)cc43)nn2[C@H]2CC[C@]3(CCCN(c4ccc(C(=O)N[C@H]5CC[C@H](Oc6ccc(C#N)c(Cl)c6)CC5)nn4)C3)CC2)C1` [Compound 266] here?
The EC50 was greater than 100 nM.

`CC(=O)N1CCc2c(c(N3CCCc4cc(-c5cnn(C)c5)c(C(F)F)cc43)nn2[C@H]2CCC3(CC2)C[C@H](Oc2ccc(C(=O)N[C@H]4CC[C@H](Oc5ccc(C#N)c(Cl)c5)CC4)nn2)C3)C1` (mixture of isomers) [Compound 301, 6-((7-(5-acetyl-3-(7-(difluoromethyl)-6-(1-methyl-1H-pyrazol-4-yl)-3,4-dihydroquinolin-1(2H)-yl)-4,5,6,7-tetrahydro-1H-pyrazolo[4,3-c]pyridin-1-yl)spiro[3.5]nonan-2-yl)oxy)-N-((1SR,4SR)-4-(3-chloro-4-cyanophenoxy)cyclohexyl)pyridazine-3-carboxamide] was tested. Which EC50 did it give?
Its EC50 is less than 1 nM.

With `CC(=O)N1CCc2c(c(N3CCCc4cc(-c5ccc(N6CCC(N7CCN(c8ccc(C(=O)N[C@H]9CC[C@H](Oc%10ccc(C#N)c(Cl)c%10)CC9)nn8)CC7)CC6)nc5)c(C(F)F)cc43)nn2C2CCOCC2)C1` [Compound 215] as the molecule, how does the EC50 read?
Its EC50 is less than 1 nM.

Which EC50 does the source give for `CC(=O)N1CCc2c(c(N3CCCc4cc(-c5cnn(C)c5)ccc43)nn2C2CCN(CC3CCN(c4ncc(C(=O)N[C@H]5CC[C@H](Oc6ccc(C#N)c(Cl)c6)CC5)cn4)CC3)CC2)C1` [Compound 11, 2-[4-[[4-[5-acetyl-3-[6-(1-methylpyrazol-4-yl)-3,4-dihydro-2H-quinolin-1-yl]-6,7-dihydro-4H-pyrazolo[4,3-c]pyridin-1-yl]-1-piperidyl]methyl]-1-piperidyl]-N-[4-(3-chloro-4-cyano-phenoxy)cyclohexyl]pyrimidine-5-carboxamide] here?
The EC50 was less than 1 nM.

`CC(=O)N1CCc2c(c(N3CCCc4cc(-c5cnn(C)c5)c(C)cc43)nn2C2CCN(C3CCC4(CC3)CN(c3ccc(C(=O)N[C@H]5CC[C@H](Oc6ccc(C#N)c(C(F)(F)F)c6)CC5)nn3)C4)CC2)C1` [Compound 297] was tested. Which EC50 did it give?
The EC50 was greater than 100 nM.

For `CC(=O)N1CCc2c(c(N3CCCc4cc(-c5cnn(C)c5)c(C(F)F)cc43)nn2[C@H]2CCC3(CC2)C[C@H](Oc2ccc(C(=O)N[C@H]4CC[C@H](Oc5ccc(C#N)c(Cl)c5)CC4)nn2)C3)C1` (mixture of isomers) [Compound 235, 6-((7-(5-acetyl-3-(7-(difluoromethyl)-6-(1-methyl-1H-pyrazol-4-yl)-3,4-dihydroquinolin-1(2H)-yl)-4,5,6,7-tetrahydro-1H-pyrazolo[4,3-c]pyridin-1-yl)spiro[3.5]nonan-2-yl)oxy)-N-((1SR,4SR)-4-(3-chloro-4-cyanophenoxy)cyclohexyl)pyridazine-3-carboxamide], which EC50 is on record?
The EC50 was less than 1 nM.

How did the EC50 turn out when `CC(=O)N1CCc2c(c(N3CCCc4cc(-c5cnn(C)c5)c(C(F)F)cc43)nn2C2CCN(C3CCC4(C3)CN(c3ccc(C(=O)N[C@H]5CC[C@H](Oc6ccc(C#N)c(Cl)c6)CC5)nn3)C4)CC2)C1` (stereo partly drawn) [Compound 227, 6-[6-[4-[5-acetyl-3-[7-(difluoromethyl)-6-(1-methylpyrazol-4-yl)-3,4-dihydro-2H-quinolin-1-yl]-6,7-dihydro-4H-pyrazolo[4,3-c]pyridin-1-yl]-1-piperidyl]-2-azaspiro[3.4]octan-2-yl]-N-[4-(3-chloro-4-cyano-phenoxy)cyclohexyl]pyridazine-3-carboxamide] was run?
Its EC50 is less than 1 nM.

With `CC(=O)N1CCc2c(c(-c3cccc4cc(-c5cnn(C)c5)ncc34)nn2C2CCN(CC3CCN(c4ncc(C(=O)N[C@H]5CC[C@H](Oc6ccc(C#N)c(Cl)c6)CC5)cn4)CC3)CC2)C1` [Compound 6] as the molecule, how does the EC50 read?
Its EC50 is less than 1 nM.

For `CC(=O)N1CCc2c(c(N3CCCc4cc(-c5cnn(C)c5)c(C(F)F)cc43)nn2C2CCN(CC3CCN(c4ncc(C(=O)N[C@H]5CC[C@H](Oc6ccc(C#N)c(Cl)c6)CC5)cn4)CC3)CC2)C1` [Compound 17, 2-[4-[[4-[5-acetyl-3-[7-(difluoromethyl)-6-(1-methylpyrazol-4-yl)-3,4-dihydro-2H-quinolin-1-yl]-6,7-dihydro-4H-pyrazolo[4,3-c]pyridin-1-yl]-1-piperidyl]methyl]-1-piperidyl]-N-[4-(3-chloro-4-cyano-phenoxy)cyclohexyl]pyrimidine-5-carboxamide], which EC50 is on record?
The EC50 was less than 1 nM.

Which EC50 does the source give for `CC(=O)N1CCc2c(c(N3CCCc4cc(-c5cscn5)c(C(F)F)cc43)nn2C2CCN([C@H]3CCCN(c4ccc(C(=O)N[C@H]5CC[C@H](Oc6ccc(C#N)c(Cl)c6)CC5)nn4)C3)CC2)C1` [Compound 260, 6-[(3S)-3-[4-[5-acetyl-3-[7-(difluoromethyl)-6-thiazol-4-yl-3,4-dihydro-2H-quinolin-1-yl]-6,7-dihydro-4H-pyrazolo[4,3-c]pyridin-1-yl]-1-piperidyl]-1-piperidyl]-N-[4-(3-chloro-4-cyano-phenoxy)cyclohexyl]pyridazine-3-carboxamide] here?
Its EC50 is 1 to 10 nM.

With `CC(=O)N1CCc2c(c(N3CCCc4cc(-c5cnn(C)c5)c(C(F)F)cc43)nn2[C@H]2CC[C@@]3(CCN(c4ccc(C(=O)N[C@H]5CC[C@H](Oc6ccc(C#N)c(Cl)c6)CC5)nn4)C3)CC2)C1` [Compound 265, 6-[8-[5-acetyl-3-[7-(difluoromethyl)-6-(1-methylpyrazol-4-yl)-3,4-dihydro-2H-quinolin-1-yl]-6,7-dihydro-4H-pyrazolo[4,3-c]pyridin-1-yl]-2-azaspiro[4.5]decan-2-yl]-N-[4-(3-chloro-4-cyano-phenoxy)cyclohexyl]pyridazine-3-carboxamide] as the molecule, how does the EC50 read?
Its EC50 is less than 1 nM.

`CC(=O)N1CCc2c(c(N3CCCc4cc(-c5cnn(C)c5)c(C(F)F)cc43)nn2[C@H]2CC[C@@]3(CCCN(C4CN(c5ccc(C(=O)N[C@H]6CC[C@H](Oc7ccc(C#N)c(Cl)c7)CC6)nn5)C4)C3)CC2)C1` [Compound 269, 6-[3-[9-[5-acetyl-3-[7-(difluoromethyl)-6-(1-methylpyrazol-4-yl)-3,4-dihydro-2H-quinolin-1-yl]-6,7-dihydro-4Hpyrazolo[4,3-c]pyridin-1-yl]-2-azaspiro[5.5]undecan-2-yl]azetidin-1-yl]-N-[4-(3-chloro-4-cyanophenoxy)cyclohexyl]pyridazine-3-carboxamide] was tested. Which EC50 did it give?
The EC50 was less than 1 nM.

How did the EC50 turn out when `CC(=O)N1CCc2c(c(-c3cccc4cc(-c5cnn(CCC6CCN(c7ccc(C(=O)N[C@H]8CC[C@H](Oc9ccc(C#N)c(Cl)c9)CC8)nn7)CC6)c5)ncc34)nn2C2CCOCC2)C1` [Compound 24, 6-[4-[2-[4-[8-(5-acetyl-1-tetrahydropyran-4-yl-6,7-dihydro-4H-pyrazolo[4,3-c]pyridin-3-yl)-3-isoquinolyl]pyrazol-1-yl]ethyl]-1-piperidyl]-N-[4-(3-chloro-4-cyano-phenoxy)cyclohexyl]pyridazine-3-carboxamide] was run?
The EC50 was less than 1 nM.
